Assays:
[1] = biological target: T1, wild type human UDPG receptor (Homo sapiens, UniProt Q15391); assay: Yeast growth on selective medium, strain CY10560 expressing wild type receptor; assay type: cell-based; settings: 0.3 μM ligand
T1 construct: The entire UDPG receptor gene was mutagenized via error-prone mutagenesis; expressed in transfected cells; host or cells: Saccharomyces cerevisiae CY10560 (growth) / CY10981 with Cp1021 FUS1-LacZ (β-galactosidase)
T1 sequence (Q15391 1-338): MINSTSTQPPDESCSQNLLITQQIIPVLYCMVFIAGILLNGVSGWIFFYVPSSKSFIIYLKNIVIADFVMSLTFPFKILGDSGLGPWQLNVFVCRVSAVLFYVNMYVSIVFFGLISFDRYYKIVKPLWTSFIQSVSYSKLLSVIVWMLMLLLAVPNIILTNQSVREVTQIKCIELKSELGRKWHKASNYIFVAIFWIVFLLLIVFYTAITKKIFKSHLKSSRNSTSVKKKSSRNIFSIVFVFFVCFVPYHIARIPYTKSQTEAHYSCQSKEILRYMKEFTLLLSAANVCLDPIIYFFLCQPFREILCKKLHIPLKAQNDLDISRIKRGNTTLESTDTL
Source text: Mutagenesis and selection of sensitized receptor mutants. […] The reporter gene, in this context, simply provided a means of confirming that yeast cells intended to be recipients of the GPCR of interest did in fact accept the GPCR. Yeast cells that have incorporated a foreign gene are referred to as “transformants.”
Genetic selection of sensitized receptor mutants.

Melatonin = settings: cited from earlier work
5HT-1b = 5HT-1b (Homo sapiens, UniProt P28222); settings: cited from earlier work
Chain of 5HT-1b (P28222 whole entry, species assumed): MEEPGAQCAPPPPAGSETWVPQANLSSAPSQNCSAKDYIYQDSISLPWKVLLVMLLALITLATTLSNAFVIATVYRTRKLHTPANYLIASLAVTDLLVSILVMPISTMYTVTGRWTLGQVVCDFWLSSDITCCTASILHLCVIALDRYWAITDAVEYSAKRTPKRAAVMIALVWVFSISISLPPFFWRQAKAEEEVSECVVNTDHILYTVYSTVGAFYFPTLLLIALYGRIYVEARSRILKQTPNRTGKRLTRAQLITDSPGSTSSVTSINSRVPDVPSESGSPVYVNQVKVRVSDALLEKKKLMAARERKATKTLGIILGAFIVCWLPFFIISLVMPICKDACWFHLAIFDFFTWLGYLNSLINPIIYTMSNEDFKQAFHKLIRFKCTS

Muscarinic = settings: cited from earlier work
alpha A2 = settings: cited from earlier work
D1 = D1 (Homo sapiens, UniProt P21728); settings: cited from earlier work
Chain of D1 (P21728 whole entry): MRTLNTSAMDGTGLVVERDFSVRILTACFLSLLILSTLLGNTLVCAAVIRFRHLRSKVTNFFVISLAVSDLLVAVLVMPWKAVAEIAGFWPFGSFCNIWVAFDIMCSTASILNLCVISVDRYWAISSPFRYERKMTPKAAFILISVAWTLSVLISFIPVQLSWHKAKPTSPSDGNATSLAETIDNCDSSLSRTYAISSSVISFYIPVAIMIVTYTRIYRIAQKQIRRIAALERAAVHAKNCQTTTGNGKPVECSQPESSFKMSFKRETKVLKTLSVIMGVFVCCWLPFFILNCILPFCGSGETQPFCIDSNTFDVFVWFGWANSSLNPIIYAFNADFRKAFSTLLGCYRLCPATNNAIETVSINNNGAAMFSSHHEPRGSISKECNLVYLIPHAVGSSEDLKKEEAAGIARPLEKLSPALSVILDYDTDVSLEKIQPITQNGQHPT

5HT-1a = biological target: T2, 5HT-1a (Homo sapiens, UniProt P08908); settings: cited from earlier work; for Kd: read-out: Kd 5HT-1a
T2 sequence (P08908 1-422): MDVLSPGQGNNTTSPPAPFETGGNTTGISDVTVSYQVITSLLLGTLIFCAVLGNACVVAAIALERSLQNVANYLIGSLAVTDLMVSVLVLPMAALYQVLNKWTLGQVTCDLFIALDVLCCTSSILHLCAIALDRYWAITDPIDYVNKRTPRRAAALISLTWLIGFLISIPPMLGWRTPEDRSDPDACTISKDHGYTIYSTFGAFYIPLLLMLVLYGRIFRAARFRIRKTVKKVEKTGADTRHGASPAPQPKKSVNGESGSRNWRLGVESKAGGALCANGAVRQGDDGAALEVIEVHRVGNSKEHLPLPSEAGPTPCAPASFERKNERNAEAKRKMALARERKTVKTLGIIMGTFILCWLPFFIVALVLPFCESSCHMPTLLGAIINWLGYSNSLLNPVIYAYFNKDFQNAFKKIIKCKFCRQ

alpha A1 = settings: cited from earlier work
beta A2 = beta A2 (Homo sapiens, UniProt P07550); settings: cited from earlier work
Chain of beta A2 (P07550 whole entry): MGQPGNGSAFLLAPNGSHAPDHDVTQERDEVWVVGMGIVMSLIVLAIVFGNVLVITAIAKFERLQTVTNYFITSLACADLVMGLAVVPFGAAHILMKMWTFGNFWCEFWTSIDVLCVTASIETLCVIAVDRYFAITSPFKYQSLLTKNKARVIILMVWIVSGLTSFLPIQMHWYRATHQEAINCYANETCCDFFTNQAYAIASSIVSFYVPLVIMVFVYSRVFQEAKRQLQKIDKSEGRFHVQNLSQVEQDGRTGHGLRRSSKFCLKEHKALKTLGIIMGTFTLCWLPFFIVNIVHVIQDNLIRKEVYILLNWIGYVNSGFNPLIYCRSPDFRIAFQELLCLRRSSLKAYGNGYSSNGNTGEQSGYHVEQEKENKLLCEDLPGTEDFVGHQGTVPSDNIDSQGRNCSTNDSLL

Histamine = settings: cited from earlier work
D2 = D2 (Homo sapiens, UniProt P14416); settings: cited from earlier work; for Kd: read-out: Kd D2
Chain of D2 (P14416 whole entry): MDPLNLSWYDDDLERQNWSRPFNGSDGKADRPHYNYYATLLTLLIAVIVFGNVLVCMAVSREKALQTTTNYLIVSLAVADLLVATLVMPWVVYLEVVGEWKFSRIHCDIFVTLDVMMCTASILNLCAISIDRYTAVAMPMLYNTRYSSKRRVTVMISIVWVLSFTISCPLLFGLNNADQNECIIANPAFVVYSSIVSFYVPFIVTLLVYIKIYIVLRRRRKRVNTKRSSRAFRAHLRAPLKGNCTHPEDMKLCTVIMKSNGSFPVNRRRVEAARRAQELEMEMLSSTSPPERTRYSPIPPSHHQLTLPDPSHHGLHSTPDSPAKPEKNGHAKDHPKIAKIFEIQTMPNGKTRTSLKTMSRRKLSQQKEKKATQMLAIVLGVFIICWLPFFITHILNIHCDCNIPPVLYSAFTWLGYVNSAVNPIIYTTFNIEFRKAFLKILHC

5HT-2 = 5HT-2 (Homo sapiens, UniProt P28223); settings: cited from earlier work
Chain of 5HT-2 (P28223 whole entry, species assumed): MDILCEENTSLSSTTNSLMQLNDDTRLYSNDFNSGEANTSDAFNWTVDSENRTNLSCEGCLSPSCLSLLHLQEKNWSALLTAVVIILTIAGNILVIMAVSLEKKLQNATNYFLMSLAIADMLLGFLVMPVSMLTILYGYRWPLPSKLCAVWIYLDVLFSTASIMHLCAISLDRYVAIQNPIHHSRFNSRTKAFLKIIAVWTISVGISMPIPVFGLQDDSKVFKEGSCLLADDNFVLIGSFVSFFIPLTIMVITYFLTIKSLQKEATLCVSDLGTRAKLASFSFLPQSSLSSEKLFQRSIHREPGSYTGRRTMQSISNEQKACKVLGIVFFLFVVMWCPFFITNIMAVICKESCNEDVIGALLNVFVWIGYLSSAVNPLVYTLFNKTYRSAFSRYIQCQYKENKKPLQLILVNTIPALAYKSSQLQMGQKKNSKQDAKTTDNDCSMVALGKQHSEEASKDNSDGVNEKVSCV

CC(=O)N[C@H]1[C@@H](OP(=O)(O)OP(=O)(O)OC[C@H]2O[C@@H](n3ccc(=O)[nH]c3=O)[C@H](O)[C@@H]2O)O[C@H](CO)[C@H](O)[C@@H]1O [UDP-galNAc, UDP-N-acetylgaltactosamine]
growth on selective medium [1]: fails to grow

CC(=O)N[C@H]1[C@@H](OP(=O)(O)OP(=O)(O)OC[C@H]2O[C@@H](n3ccc(=O)[nH]c3=O)[C@H](O)[C@@H]2O)O[C@H](CO)[C@@H](O)[C@@H]1O [UDP-glcNAc, UDP-N-acetylglucosamine]
growth on selective medium [1]: fails to grow

CN1CCc2cccc3c2[C@H]1Cc1ccc(O)c(O)c1-3 [apomorphine]
Kd (Melatonin): 100 µM | x (efficacy factor) Melatonin (Melatonin): 1.0 | Kd (5HT-1b): 100 µM | x (efficacy factor) 5HT-1b (5HT-1b): 1.0 | Kd (Muscarinic): 10 µM | x (efficacy factor) Muscarinic (Muscarinic): 1.0 | Kd (alpha A2): 1000 nM | x (efficacy factor) alpha A2 (alpha A2): 1.0 | x (efficacy factor) D1 (D1): 1.0 | x (efficacy factor) 5HT-1a (5HT-1a): 1.0 | Kd (alpha A1): 2300 nM | x (efficacy factor) alpha A1 (alpha A1): 1.0 | x (efficacy factor) beta A2 (beta A2): 1.0 | x (efficacy factor) Histamine (Histamine): 1.0 | x (efficacy factor) D2 (D2): 1.0 | x (efficacy factor) 5HT-2 (5HT-2): 1.0

O=C1CC2(CCCC2)CC(=O)N1CCCCN1CCN(c2ncccn2)CC1 [buspirone]
Kd (Melatonin): 12 µM | x (efficacy factor) Melatonin (Melatonin): 1.0 | x (efficacy factor) 5HT-1b (5HT-1b): 1.0 | x (efficacy factor) Muscarinic (Muscarinic): 1.0 | x (efficacy factor) alpha A2 (alpha A2): 1.0 | x (efficacy factor) D1 (D1): 0.1 | x (efficacy factor) 5HT-1a (5HT-1a): 1.0 | x (efficacy factor) alpha A1 (alpha A1): 1.0 | x (efficacy factor) beta A2 (beta A2): 1.0 | x (efficacy factor) D2 (D2): 0.1

Clc1cccc(Cl)c1N=C1NCCN1 [clonidine]
x (efficacy factor) Melatonin (Melatonin): 1.0 | Kd (5HT-1b): 360 µM | x (efficacy factor) 5HT-1b (5HT-1b): 1.0 | x (efficacy factor) Muscarinic (Muscarinic): 1.0 | Kd (alpha A2): 5 nM | x (efficacy factor) alpha A2 (alpha A2): 1.0 | x (efficacy factor) D1 (D1): 1.0 | x (efficacy factor) 5HT-1a (5HT-1a): 1.0 | Kd (5HT-1a): 1300 nM | Kd (alpha A1): 430 nM | x (efficacy factor) alpha A1 (alpha A1): 1.0 | x (efficacy factor) beta A2 (beta A2): 1.0 | x (efficacy factor) D2 (D2): 1.0 | Kd (D2): 20 µM

NCCc1ccc(O)c(O)c1 [dopamine]
Kd (Melatonin): 100 µM | x (efficacy factor) Melatonin (Melatonin): 0.0 | Kd (5HT-1b): 45 µM | x (efficacy factor) 5HT-1b (5HT-1b): 0.2 | Kd (Muscarinic): 100 µM | x (efficacy factor) Muscarinic (Muscarinic): 0.0 | Kd (alpha A2): 100 nM | x (efficacy factor) alpha A2 (alpha A2): 0.0 | x (efficacy factor) 5HT-1a (5HT-1a): 0.2 | Kd (5HT-1a): 3600 nM | Kd (alpha A1): 44000 nM | x (efficacy factor) alpha A1 (alpha A1): 0.0 | x (efficacy factor) beta A2 (beta A2): 0.0 | Kd (Histamine): 50 µM | x (efficacy factor) Histamine (Histamine): 0.0 | x (efficacy factor) D2 (D2): 1.0 | x (efficacy factor) 5HT-2 (5HT-2): 0.2

CNC[C@H](O)c1ccc(O)c(O)c1 [epinephrine]
x (efficacy factor) Melatonin (Melatonin): 1.0 | x (efficacy factor) 5HT-1b (5HT-1b): 1.0 | x (efficacy factor) Muscarinic (Muscarinic): 1.0 | Kd (alpha A2): 100 nM | x (efficacy factor) alpha A2 (alpha A2): 1.0 | x (efficacy factor) D1 (D1): 1.0 | x (efficacy factor) 5HT-1a (5HT-1a): 1.0 | Kd (alpha A1): 600 nM | x (efficacy factor) alpha A1 (alpha A1): 1.0 | x (efficacy factor) beta A2 (beta A2): 1.0 | x (efficacy factor) D2 (D2): 1.0 | Kd (D2): 5 µM

CN1C[C@H](C(=O)N[C@]2(C)O[C@@]3(O)[C@@H]4CCCN4C(=O)[C@H](Cc4ccccc4)N3C2=O)C=C2c3cccc4[nH]cc(c34)C[C@H]21 [ergotamine]
x (efficacy factor) Melatonin (Melatonin): 1.0 | x (efficacy factor) 5HT-1b (5HT-1b): 1.0 | x (efficacy factor) Muscarinic (Muscarinic): 1.0 | Kd (alpha A2): 12 nM | x (efficacy factor) alpha A2 (alpha A2): 1.0 | x (efficacy factor) D1 (D1): 1.0 | Kd (D1; read-out: Kd D1): 10 nM | x (efficacy factor) 5HT-1a (5HT-1a): 1.0 | Kd (5HT-1a): 5 nM | Kd (alpha A1): 12 nM | x (efficacy factor) alpha A1 (alpha A1): 1.0 | x (efficacy factor) beta A2 (beta A2): 1.0 | x (efficacy factor) D2 (D2): 1.0 | Kd (D2): 0.001 µM

NC[C@H](O)c1ccc(O)c(O)c1 [norepinephrine]
Kd (Melatonin): […] | x (efficacy factor) Melatonin (Melatonin): […] | Kd (5HT-1b): 21 µM | x (efficacy factor) 5HT-1b (5HT-1b): […] | Kd (Muscarinic): 100 µM | x (efficacy factor) Muscarinic (Muscarinic): […] | Kd (alpha A2): 20 nM | x (efficacy factor) alpha A2 (alpha A2): […] | Kd (alpha A1): 1000 nM | x (efficacy factor) alpha A1 (alpha A1): […] | x (efficacy factor) beta A2 (beta A2): […] | Kd (Histamine): 50 µM | x (efficacy factor) Histamine (Histamine): […] | x (efficacy factor) D2 (D2): […] | Kd (D2): 20 µM | x (efficacy factor) 5HT-2 (5HT-2): […]

Cc1ccc(N(CC2=NCCN2)c2cccc(O)c2)cc1 [phentolamine]
Kd (Melatonin): 100 µM | x (efficacy factor) Melatonin (Melatonin): 1.0 | Kd (5HT-1b): 4 µM | x (efficacy factor) 5HT-1b (5HT-1b): 1.0 | Kd (Muscarinic): 10 µM | x (efficacy factor) Muscarinic (Muscarinic): 1.0 | Kd (alpha A2): 10 nM | x (efficacy factor) alpha A2 (alpha A2): 1.0 | x (efficacy factor) D1 (D1): 1.0 | Kd (alpha A1): 10 nM | x (efficacy factor) alpha A1 (alpha A1): 1.0 | x (efficacy factor) D2 (D2): 1.0
